Data reported in patent EP2902035B1, “Cell-permeable peptide inhibitors of the JNK signal transduction pathway for use in the treatment of inflammatory eye diseases” (Xigen Inflammation Ltd., priority 2010, dated 2012).

Legend:
iNOS positive cells = test: Immunohistochemistry of iNOS on eye sections in EIU; assay type: in vivo, Lewis rats; conditions: IV or IVT injection compared to control eyes, 24h
Method: A second set of experiment was designed to evaluate the anti-inflammatory effect of the JNK-inhibitor (poly-)peptide of SEQ ID NO: 11 at the cellular and tissue level as well as the biodistribution of this molecule 24 hours after administration. Rats were randomized into 11 experimental groups. 6 groups of rats with uveitis: untreated uveitic rats, rats injected intravenously with NaCl or the JNK-inhibitor (poly-)peptide of SEQ ID NO: 11 and rats injected intravitreously with the vehicle, the JNK-inhibitor (poly-)peptide of SEQ ID NO: 11 or dexamethasone. The 5 additional groups without uveitis were: untreated healthy rats, rats treated by NaCl IV or the JNK-inhibitor (poly-)peptide of SEQ ID NO: 11 IV and rats injected IVT with NaCl or the JNK-inhibitor (poly-)peptide of SEQ ID NO: 11. Three eyes from separate rats were collected per group and used for immunohistochemistry. To characterize the cellular infiltrate, sections were double-stained with ED1 and iNOS. […] After staining nuclei with DAPI (Sigma-Aldrich, Saint-Quentin Fallavier, France), sections were mounted in PBS/Glycerol (1/1) and observed by fluorescence photomicroscopy (FXA, Microphot, Nikon, Melville, USA). […] ED1 positive cells and polymorphonuclear cells, identified by the shape of their nuclei stained with DAPI, were quantified on histological sections. […] Results were expressed as mean ± standard error of the mean (SEM).

[1] = system: polymorphonuclear cells (PMN); test: Quantification of infiltrating polymorphonuclear cells on histological sections in EIU; assay type: in vivo, Lewis rats; conditions: at 24 hours, mean ± SEM
Method: For immunohistochemistry, eyeballs were collected and fixed for 1h at room temperature in phosphate buffered saline (PBS) containing 4% paraformaldehyde before being rinsed overnight in PBS. The next day, samples were embedded and frozen in optimal cutting-temperature (OCT) compound (Tissue-Tek®, Sakura Finetek, Zoeterwoude, Netherland) and stored at -80°C. Frozen antero-posterior sections of eyes (10 µm thick) were performed at the optic nerve level using a cryostat (Leica CM 3050S, Rueil-Malmaison, France) and mounted on super-frost slides for immunohistochemical analysis.
A second set of experiment was designed to evaluate the anti-inflammatory effect of the JNK-inhibitor (poly-)peptide of SEQ ID NO: 11 at the cellular and tissue level as well as the biodistribution of this molecule 24 hours after administration. Rats were randomized into 11 experimental groups. 6 groups of rats with uveitis: untreated uveitic rats, rats injected intravenously with NaCl or the JNK-inhibitor (poly-)peptide of SEQ ID NO: 11 and rats injected intravitreously with the vehicle, the JNK-inhibitor (poly-)peptide of SEQ ID NO: 11 or dexamethasone. The 5 additional groups without uveitis were: untreated healthy rats, rats treated by NaCl IV or the JNK-inhibitor (poly-)peptide of SEQ ID NO: 11 IV and rats injected IVT with NaCl or the JNK-inhibitor (poly-)peptide of SEQ ID NO: 11. Three eyes from separate rats were collected per group and used for immunohistochemistry.
To characterize the cellular infiltrate, sections were double-stained with ED1 and iNOS. […] After staining nuclei with DAPI (Sigma-Aldrich, Saint-Quentin Fallavier, France), sections were mounted in PBS/Glycerol (1/1) and observed by fluorescence photomicroscopy (FXA, Microphot, Nikon, Melville, USA). […] ED1 positive cells and polymorphonuclear cells, identified by the shape of their nuclei stained with DAPI, were quantified on histological sections. […] Results were expressed as mean ± standard error of the mean (SEM).

## CC(C)C[C@@H](NC(=O)[C@@H](Cc1ccccc1)NC(=O)[C@H]1CCCN1C(=O)[C@@H](CCC(N)=O)NC(=O)[C@H](NC(=O)[C@H]1CCCN1C(=O)[C@@H](CCCNC(=N)N)NC(=O)[C@@H](CO)NC(=O)[C@@H](CCC(N)=O)NC(=O)[C@H](N)CC(=O)O)C(C)C)C(=O)N[C@H](CC(N)=O)C(=O)N[C@H](CC(C)C)C(=O)N[C@@H](C(=O)N[C@@H](C(=O)N1CCC[C@@H]1C(=O)N[C@H](CCCNC(=N)N)C(=O)N[C@H](CCCCN)C(=O)N1CCC[C@@H]1C(=O)N[C@H](CCCNC(=N)N)C(=O)N1CCC[C@@H]1C(=O)N1CCC[C@@H]1C(=O)N[C@H](CCCNC(=N)N)C(=O)N[C@H](CCCNC(=N)N)C(=O)N[C@H](CCCNC(=N)N)C(=O)N[C@H](CCC(N)=O)C(=O)N[C@H](CCCNC(=N)N)C(=O)N[C@H](CCCNC(=N)N)C(=O)N[C@H](CCCCN)C(=O)N[C@H](CCCCN)C(=O)N[C@H](CCCNC(=N)N)C(=O)NCC(=O)O)[C@H](C)O)[C@H](C)O [SEQ ID NO: 11]
iNOS positive cells
  number of iNOS positive cells: reduced
[1]; IV administration (20 µg/kg)
  number of polymorphonuclear cells (PMN): 60 ± 6
[1]; IVT injection (SEQ ID NO: 11: 0.2 µg/injection)
  number of polymorphonuclear cells (PMN): 40 ± 5
